Here are results for ten substances from PMC8653662, “Cytotoxicity and Immunogenicity Evaluation of Synthetic Cell-penetrating Peptides for Methotrexate Delivery” (Iranian Journal of Pharmaceutical Research : IJPR, 2021).

The nature of data set [1]: Zetasizer hydrodynamic size distribution and zeta potential. Type of data set: physicochemical. To be noted: Zetasizer Nano ZS, distilled water pH 7.4, 25 °C, repeated three times. The method, then: The size and morphology of NGRWR peptide and NGRWR-E8 nanoparticles (as representatives) were examined by scanning electron microscopy (SEM, Mira3 FEG-SEM Tescan 5.0 kV). Samples were prepared by drop-casting of a 5 mM aqueous solution (20 µL) onto the mica surface. Then, they were lyophilized, coated with gold, and analyzed with a […] of SEM. Zetasizer Nano ZS (Malvern Instruments, Worcestershire, UK) was employed to examine the mean hydrodynamic diameter, size distribution, and zeta potential of NGRWR peptide and NGRWR-E8 nanoparticles. To this end, the samples were diluted in distilled water (pH 7.4), and the experiment was repeated three times per sample at 25 °C.

The test system of a further data set is Raji cells. Nature of the data set: MTT cell viability assay. Type of data set: cell-based, Human. The note with it: for cytotoxicity of CPPs: 5, 10, 25 and 50 μM, 24, 48 and 72 h, 570 nm, mean of three independent experiments in duplicate. The method, then:
Human lymphoma cell line (Raji) was cultured in 75 cm^2 cell culture flasks containing RPMI 1640 medium (Gibco), which was supplemented with 10% FBS, 2 mM L-glutamine, 100 units/mL penicillin, and 100 µg/mL streptomycin ([29]). The cell culture was carried out in a humidified atmosphere of 5% CO2, 95% air, and 37 °C. The cell viability of CPPs and peptide-MTX conjugates was determined by MTT assay in Raji cells. […] […] The cell viability was determined by measuring the amount of MTT transformed to formazan salt using an ELISA reader at 570 nm (Bioteck Instruments, Winooski, VT, USA). The results were the means of three independent experiments performed in duplicate.
Background: Tetrazolium assays rely on reduction of a dye to a coloured formazan, in cell work by metabolically active cells.

The next data set concerns TNF-α. Type of data set: cell-based, Human. The note with it: Raji cells; LPS 10 μg/mL; 48 h; positive control. Here is the method: (§1) As a positive control, cells were incubated with 10 μg/mL of lipopolysaccharide (LPS) to induce IL-6 and TNF-α release. Then, the supernatant was collected and IL-6 and TNF-α secretion was evaluated using standard ELISA kits.
The next data set deals with IL-6. Type of data set: cell-based, Human. To be noted: Raji cells; LPS 10 μg/mL; 48 h; positive control. The method, then: as §1

Ends that are not written are not given here. MTX = methotrexate

For “NGRWRWRWR [linear cell-penetrating peptide …]”, in data set [1], the “size distribution, population of 16% of particles” value came to 50 nm; the “size distribution, population of 20% of particles” value was determined as 37 nm; the “size distribution, population of 21% of particles” value was 50-250 nm; the “size distribution, population of 43% of particles” value is on record as 26 nm. Besides, in data set [1], the zeta potential result is “+11 mV”. Moreover, the “cytotoxicity of CPPs” value with Raji cells was “no significant cytotoxicity”.
As to “WKWKWKWK [[WK]4, linear cell-penetrating peptide WKWKWKWK]”, the “cytotoxicity of CPPs” value in the data set on Raji cells was “no significant cytotoxicity”.
For “WRWNGRWRW [WRNGRWR, linear cell-penetrating peptide …]”, the “cytotoxicity of CPPs” value in the data set on Raji cells was “no significant cytotoxicity”.
Still for that read-out and setting: to “RRRRRR [R6, linear polyarginine peptide RRRRRR]” belongs “no significant cytotoxicity”.
Regarding lipopolysaccharide [LPS], in the data set on TNF-α, the “TNF-α level enhancement over the control group” value was 100 times. Also, in the data set on IL-6, the “IL-6 level enhancement over the control group” value is 100 times.
With “WRWRWRNGR [linear cell-penetrating peptide …]”, the “cytotoxicity of CPPs” value in the data set on Raji cells was “no significant cytotoxicity”.
One may read the cell viability as a read-out of living cells in per cent, often relative to untreated cells. Read a high cell viability as better survival. With “WRWRWRWR [[WR]4, linear cell-penetrating peptide WRWRWRWR]”, the cell viability in the data set on Raji cells (5 μM peptide, 24 h) is recorded as 40%.
In the case of “WWWWKKKK [W4K4, linear cell-penetrating peptide WWWWKKKK]”, the “cytotoxicity of CPPs” value in the data set with Raji cells is reported as “no significant cytotoxicity”.
Regarding “WWWWRRRR [W4R4, linear cell-penetrating peptide WWWWRRRR]”, the “cytotoxicity of CPPs” value with Raji cells is “no significant cytotoxicity”.
For the substance WRNGRWR-MTX (WRNGRWR-{MTX}), the “cytotoxic effect of peptide-MTX conjugates” value in the data set on Raji cells (25 nM MTX, 48 h after treatment) was “no significant cytotoxic effect”.
